How the values were obtained:
[1] = target: T1, human CCK2i4svR splice variant (Homo sapiens, UniProt P32239); test: Competition binding against [125I][I-Tyr12,Leu15]gastrin-17 in HEK293-CCK2i4svR cell membranes; details: vs [125I][I-Tyr12,Leu15]gastrin-17, HEK293-CCK2i4svR cell membranes, 1 h 22 °C; mean ± SD
T1 construct: expressed in transfected cells; membrane homogenates
T1 sequence (P32239 1-516 isoform P32239-2): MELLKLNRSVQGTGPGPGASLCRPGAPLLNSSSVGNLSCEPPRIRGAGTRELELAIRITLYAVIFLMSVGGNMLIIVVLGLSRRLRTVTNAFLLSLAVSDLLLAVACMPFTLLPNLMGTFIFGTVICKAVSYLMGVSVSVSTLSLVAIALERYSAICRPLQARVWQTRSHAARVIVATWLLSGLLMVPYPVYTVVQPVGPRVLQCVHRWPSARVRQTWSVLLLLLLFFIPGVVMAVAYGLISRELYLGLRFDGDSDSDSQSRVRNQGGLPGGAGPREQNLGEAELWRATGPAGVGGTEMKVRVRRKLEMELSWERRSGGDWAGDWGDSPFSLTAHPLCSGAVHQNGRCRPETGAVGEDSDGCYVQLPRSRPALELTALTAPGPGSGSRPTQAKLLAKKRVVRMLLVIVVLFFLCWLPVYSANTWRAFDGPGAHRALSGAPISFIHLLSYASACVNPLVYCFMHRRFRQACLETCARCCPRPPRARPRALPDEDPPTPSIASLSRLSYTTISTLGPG
Description: Competition binding assays for the metal-free GAS1/2/3 and the corresponding metal-tagged [^natGa]Ga/[^natIn]In/[^natLu]Lu-GAS1/3 and [^natGa]Ga/[^natIn]In-GAS2 analogs were conducted against the [^125I][I-Tyr^12,Leu^15]gastrin-17 radioligand in membrane homogenates harvested from HEK293-CCK2i4svR cells, as previously described. Briefly, each of the above analogs, or unmodified Z360 serving as control, was incubated in triplicates of increasing concentrations (10^−13–10^−6 M) with [^125I][I-Tyr^12,Leu^15]gastrin-17 (50 pM, ≈40,000 cpm) and membrane homogenate in binding buffer (300 µL, pH 7.4, 50 mM HEPES, 1% BSA, 5.5 mM MgCl2, 35 µM bacitracin) for 1 h at 22 °C. Incubation was interrupted by rapid filtration through glass fiber filters (Whatman GF/B, presoaked in binding buffer for at least 1 h) on a Brandel Cell Harvester (Adi Hassel Ingenieur Büro, Munich, Germany) and subsequent rinsing with ice-cold washing buffer (10 mM HEPES pH 7.4, 150 mM NaCl). The radioactivity content of individual filters was measured in a gamma counter (automated multi-sample well-type instrument with a NaI(Tl) 3′ crystal, Canberra Packard Cobra^TM Quantum U5003/1, Auto-Gamma® counting system). The 50% inhibitory concentration (IC50) was determined by nonlinear regression analysis according to a one-site model using PRISM 6 (Graph Pad Software, San Diego, CA, USA). Values are expressed as mean ± standard deviation (SD) of three independent experiments performed in triplicate.

[2] = system: HEK293-CCK2i4svR cells; test: Radioligand uptake and internalization in HEK293-CCK2i4svR cells; type: cell-based, human; details: 1 h 37 °C, specific, of total added activity
Description: A day before the experiment, HEK293-CCK2i4svR cells were seeded in six-well plates. The next day, cells were rinsed with ice-cold internalization medium (IM: DMEM Glutamax-I, supplemented by 1% (v/v) FBS) and then the fresh medium was added (1.2 mL) at 37 °C. A further portion of IM (150 µL) was added in the upper well-row, and DG2 solution in IM (150 µL) was added in the lower row (to a final concentration of 1 μM; non-specific series). Each of the test radioligands, [^67Ga]Ga/[^111In]In/[^177Lu]Lu-GAS1/3 and [^67Ga]Ga/[^111In]In-GAS2, was finally added (250 fmol total conjugates in 150 μL 0.5% BSA-PBS) in all the wells and the plates were incubated at for 1 h at 37 °C in an Incubator-Orbital Shaker unit (MPM Instr. SrI, Bernareggio, MI, Italy); [^111In]In-GAS1/2/3 were incubated for 15 min, 30 min, 1 h and 2 h. At the predetermined time points, the plates were placed on ice, the medium was collected, and the plates were rinsed with 0.5% BSA-PBS (1 mL). Cells were subsequently treated with an acid-wash solution (2 × 600 µL; 50 mM glycine buffer pH 2.8, 0.1 M NaCl) and the fractions collected (membrane-bound). After briefly washing with 0.5% BSA-PBS (1 mL), the cells were lysed with 1 N NaOH (2 × 600 µL), and the fractions were collected (internalized). The radioactivity content of collected fractions was counted in the gamma counter, and the percentage of internalized and membrane-bound fractions per time point were calculated with Microsoft Excel. Specific internalized and membrane-bound counts were determined by subtracting the respective non-specific (in the presence of 1 μM DG2) from the respective total counts. Results represent specific internalized/membrane bound ± SD of total added radioactivity per well from three experiments performed in triplicate.

[3] = system: SCID mice bearing twin HEK293-CCK2i4svR and wtHEK293 tumors; test: Biodistribution in SCID mice bearing twin HEK293-CCK2i4svR and wtHEK293 xenografts; type: in vivo
Description: Inocula containing a suspension of freshly harvested HEK293-CCK2i4svR/wtHEK293 cells (150 μL, 1.8 × 10^7/1.4 × 10^7 cells, respectively, in normal saline) were subcutaneously (sc) injected in the right and left flanks of male SCID mice (24.5 ± 2.3 g body weight, six weeks of age on arrival day, NCSR “Demokritos” Animal House Facility). Well-palpable tumors (0.42 ± 0.37/0.25 ± […], respectively) were grown at the inoculation site 3–4 weeks later, and biodistribution was conducted. On the day of biodistribution, animals were divided into groups of four and received the radioligand through the tail vein as a bolus (100 μL, containing each of: i. 78–91 kBq [^67Ga]GAS1/2/3 corresponding to 7–17 pmol GAS1/2/3; ii. 74–92 kBq [^111In]GAS1/2/3 corresponding to 20–25 pmol GAS1/2/3; iii. 730 kBq [^177Lu]Lu-GAS1/3 corresponding to 40 pmol GAS1/3, in-vehicle: saline/EtOH 9/1 v/v). Animals were euthanized at predetermined time intervals depending upon the radionuclide applied (for [^67Ga]Ga-GAS1/2/3: 1, 4 and 24 h pi; for [^111In]In-GAS1/2/3: 4 and 24 h pi–two extra groups of mice receiving gelofusine together with [^111In]In-GAS1/2 at 4 and 24 h pi were included; and for [^177Lu]Lu-GAS1/3: 4, 24, 48, 72 and 96 h pi). Mice were dissected, and blood samples, organs of interest and tumors were rapidly collected, weighted and counted in the gamma counter. Biodistribution data was calculated as the percentage of the administered dose per gram tissue (%IA/g) with the aid of suitable standards of the administered dose and the Microsoft Excel program. Results are presented as mean % IA/g values ± SD, n = 4 per time point, as determined by the PRISM^TM 6.0 GraphPad software (San Diego, CA, USA).

## CC(C)(C)C(=O)CN1C(=O)[C@H](NC(=O)Nc2cccc(C(=O)NCCOCCOCCOCCNC(=O)[C@H](CCC(=O)O)NC(=O)CN3CCN(CC(=O)[O-])CCN(CC(=O)[O-])CCN(CC(=O)[O-])CC3)c2)CN(C2CCCCC2)c2ccccc21.[Lu+3] [[^natLu]Lu-GAS1]
[1]
  IC50: 12.4 ± 0.2 nM

## CC(C)(C)C(=O)CN1C(=O)[C@H](NC(=O)Nc2cccc(C(=O)NCCOCCOCCOCCNC(=O)[C@H](CCC(=O)O)NC(=O)CCC(C(=O)O)N3CCN(CC(=O)[O-])CCN(CC(=O)[O-])CCN(CC(=O)[O-])CC3)c2)CN(C2CCCCC2)c2ccccc21.[Lu+3] (stereo partly drawn) [[^natLu]Lu-GAS3]
[1]
  IC50: 4.3 ± 0.9 nM

## CC(C)(C)C(=O)CN1C(=O)[C@H](NC(=O)Nc2cccc(C(=O)NCCOCCOCCOCCNC(=O)[C@H](CCC(=O)O)NC(=O)CCC(C(=O)O)N3CCN(CC(=O)[O-])CCN(CC(=O)[O-])CCN(CC(=O)[O-])CC3)c2)CN(C2CCCCC2)c2ccccc21.[Ga+3] (stereo partly drawn) [[^natGa]Ga-GAS3]
[1]
  IC50: 4.8 ± 0.6 nM

## CC(C)(C)C(=O)CN1C(=O)[C@H](NC(=O)Nc2cccc(C(=O)NCCOCCOCCOCCNC(=O)[C@H](CCC(=O)O)NC(=O)CCC(C(=O)[O-])N3CCN(CC(=O)[O-])CCN(CC(=O)[O-])CC3)c2)CN(C2CCCCC2)c2ccccc21.[In+3] (stereo partly drawn) [[^natIn]In-GAS2]
[1]
  IC50: 53.2 ± 2.7 nM

## CC(C)(C)C(=O)CN1C(=O)[C@H](NC(=O)Nc2cccc(C(=O)NCCOCCOCCOCCNC(=O)[C@H](CCC(=O)O)NC(=O)CCC(C(=O)O)N3CCN(CC(=O)[O-])CCN(CC(=O)[O-])CCN(CC(=O)[O-])CC3)c2)CN(C2CCCCC2)c2ccccc21.[67Ga+3] (stereo in doubt) [[^67Ga]Ga-GAS3]
[2]
  Cell uptake (internalized + membrane-bound): 4.95 ± 0.51%
[3]; 1 h pi
  Biodistribution, Blood: 8.61 ± 1.17 %IA/g
  Biodistribution, CCK2i4svR(+) Tumor: 21.75 ± 4.90 %IA/g
  Biodistribution, CCK2i4svR(-) Tumor: 2.52 ± 0.28 %IA/g
  Biodistribution, Femur: 1.60 ± 0.31 %IA/g
  Biodistribution, Heart: 2.23 ± 0.38 %IA/g
  Biodistribution, Intestines: 1.53 ± 0.19 %IA/g
  Biodistribution, Kidneys: 9.09 ± 1.51 %IA/g
  Biodistribution, Liver: 5.62 ± 0.40 %IA/g
  Biodistribution, Lungs: 4.32 ± 0.58 %IA/g
  Biodistribution, Muscle: 0.82 ± 0.14 %IA/g
  Biodistribution, Pancreas: 2.51 ± 0.22 %IA/g
  Biodistribution, Spleen: 1.96 ± 0.13 %IA/g
  Biodistribution, Stomach: 1.51 ± 0.13 %IA/g
[3]; 4 h pi
  Biodistribution, Blood: 2.23 ± 0.39 %IA/g
  Biodistribution, CCK2i4svR(+) Tumor: 20.39 ± 3.96 %IA/g
  Biodistribution, CCK2i4svR(-) Tumor: 1.15 ± 0.18 %IA/g
  Biodistribution, Femur: 0.78 ± 0.10 %IA/g
  Biodistribution, Heart: 0.76 ± 0.07 %IA/g
  Biodistribution, Intestines: 1.59 ± 0.19 %IA/g
  Biodistribution, Kidneys: 7.86 ± 0.48 %IA/g
  Biodistribution, Liver: 4.97 ± 0.74 %IA/g
  Biodistribution, Muscle: 0.25 ± 0.05 %IA/g
  Biodistribution, Pancreas: 0.77 ± 0.11 %IA/g
  Biodistribution, Spleen: 1.60 ± 0.39 %IA/g
  Biodistribution, Stomach: 0.61 ± 0.12 %IA/g
[3]; 24 h pi
  Biodistribution, Blood: 0.14 ± 0.02 %IA/g
  Biodistribution, CCK2i4svR(+) Tumor: 5.37 ± 1.00 %IA/g
  Biodistribution, CCK2i4svR(-) Tumor: 0.61 ± 0.08 %IA/g
  Biodistribution, Femur: 0.52 ± 0.07 %IA/g
  Biodistribution, Heart: 0.17 ± 0.02 %IA/g
  Biodistribution, Intestines: 0.39 ± 0.06 %IA/g
  Biodistribution, Kidneys: 1.98 ± 0.45 %IA/g
  Biodistribution, Liver: 2.48 ± 0.34 %IA/g
  Biodistribution, Lungs: 2.43 ± 1.04 %IA/g
  Biodistribution, Muscle: 0.06± 0.00 %IA/g
  Biodistribution, Pancreas: 0.17 ± 0.03 %IA/g
  Biodistribution, Spleen: 1.67 ± 0.37 %IA/g
  Biodistribution, Stomach: 0.19 ± 0.03 %IA/g
[3]; mouse, in vivo
  Background clearance / excretion route: cleared mainly via the kidneys

## CC(C)(C)C(=O)CN1C(=O)[C@H](NC(=O)Nc2cccc(C(=O)NCCOCCOCCOCCNC(=O)[C@H](CCC(=O)O)NC(=O)CN3CCN(CC(=O)[O-])CCN(CC(=O)[O-])CCN(CC(=O)[O-])CC3)c2)CN(C2CCCCC2)c2ccccc21.[In+3] [[^natIn]In-GAS1]
[1]
  IC50: 5 ± 1.1 nM

## CC(C)(C)C(=O)CN1C(=O)[C@H](NC(=O)Nc2cccc(C(=O)NCCOCCOCCOCCNC(=O)[C@H](CCC(=O)O)NC(=O)CN3CCN(CC(=O)[O-])CCN(CC(=O)[O-])CCN(CC(=O)[O-])CC3)c2)CN(C2CCCCC2)c2ccccc21.[Ga+3] [[^natGa]Ga-GAS1]
[1]
  IC50: 13.8 ± 2.7 nM

## CC(C)(C)C(=O)CN1C(=O)[C@H](NC(=O)Nc2cccc(C(=O)NCCOCCOCCOCCNC(=O)[C@H](CCC(=O)O)NC(=O)CCC(C(=O)O)N3CCN(CC(=O)[O-])CCN(CC(=O)[O-])CCN(CC(=O)[O-])CC3)c2)CN(C2CCCCC2)c2ccccc21.[In+3] (stereo partly drawn) [[^natIn]In-GAS3]
[1]
  IC50: 1.9 ± 0.2 nM

## CC(C)(C)C(=O)CN1C(=O)[C@H](NC(=O)Nc2cccc(C(=O)NCCOCCOCCOCCNC(=O)[C@H](CCC(=O)O)NC(=O)CCC(C(=O)[O-])N3CCN(CC(=O)[O-])CCN(CC(=O)[O-])CC3)c2)CN(C2CCCCC2)c2ccccc21.[Ga+3] (stereo partly drawn) [[^natGa]Ga-GAS2]
[1]
  IC50: 8.8 ± 1.6 nM

From paper PMC8954547, “Nonpeptidic Z360-Analogs Tagged with Trivalent Radiometals as Anti-CCK2R Cancer Theranostic Agents: A Preclinical Study” (Pharmaceutics, 2022)
